Several values for one entry are separate records, joined by “and”; a condition that tells them apart may be missing. Identical values can stand only once.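 These data come from cells grown in 96-well plates and exposed to compound for 48 hours at five concentrations. GI50 = concentration required for 50% inhibition of growth.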 Activity calls are given as the source filed them. Cut-off read from the data, not from the text of the source: active = GI50 up to about 1.1 µM and inactive = higher.
Columns and labels:
Experiment in all cases: NCI tumour cell line growth inhibition, 48 h
BT-549 = test system: BT-549
CAKI-1 = test system: CAKI-1
COLO 205 = test system: COLO 205
EKVX = test system: EKVX
M14 = test system: M14
MDA-MB-231 = test system: MDA-MB-231
Malme-3M = test system: Malme-3M
NCI-H522 = test system: NCI-H522
PC-3 = test system: PC-3
SF-268 = test system: SF-268
SF-295 = test system: SF-295
SK-MEL-28 = test system: SK-MEL-28
SK-MEL-2 = test system: SK-MEL-2
SNB-19 = test system: SNB-19
SNB-75 = test system: SNB-75
TK-10 = test system: TK-10
U-251 = test system: U-251
UO-31 = test system: UO-31
HOP-62 = test system: HOP-62
SR = test system: SR

| SMILES | GI50 (BT-549) | GI50 (CAKI-1) | GI50 (COLO 205) | GI50 (EKVX) | GI50 (M14) | GI50 (MDA-MB-231) | GI50 (Malme-3M) | GI50 (NCI-H522) | GI50 (PC-3) | GI50 (SF-268) | GI50 (SF-295) | GI50 (SK-MEL-28) | GI50 (SK-MEL-2) | GI50 (SNB-19) | GI50 (SNB-75) | GI50 (TK-10) | GI50 (U-251) | GI50 (UO-31) | GI50 (HOP-62) | GI50 (SR) |
| --- | --- | --- | --- | --- | --- | --- | --- | --- | --- | --- | --- | --- | --- | --- | --- | --- | --- | --- | --- | --- |
| Nn1c(CCCCCCCCc2nnc(COc3ccc(Cl)cc3Cl)n2N)nnc1COc1ccc(Cl)cc1Cl | 35.9 µM (inactive) | 41.9 µM (inactive) | 25.8 µM (inactive) | 38.3 µM (inactive) | 49.3 µM (inactive) | 52.4 µM (inactive) | 6.71 µM (inactive) | 17.3 µM (inactive) | 31 µM (inactive) | 33 µM (inactive) | > 10 µM (inactive) | 68.5 µM (inactive) | 42 µM (inactive) | 30.9 µM (inactive) | > 10 µM (inactive) | 89.9 µM (inactive) | 62.4 µM (inactive) | 47.1 µM (inactive) | – | – |
| COc1cc2c(cc1OC)C1Cc3cc(OC)c(OC)cc3C(C2)N1C | > 75 µM (inactive) | 85.1 µM (inactive) | > 75 µM (inactive) | > 100 µM (inactive) | > 100 µM (inactive) | 0.0297 µM (active) | > 75 µM (inactive) | > 100 µM (inactive) | > 75 µM (inactive) | > 100 µM (inactive) | 40.6 µM (inactive) | > 100 µM (inactive) | > 75 µM (inactive) | > 100 µM (inactive) | > 100 µM (inactive) | – | > 100 µM (inactive) | – | > 75 µM (inactive) and 44.3 µM (inactive) | – |
| COC(=O)c1c(C)cccc1CC1Cc2c(C)cccc2C1=O (stereo unspecified) | 35.9 µM (inactive) | 33.4 µM (inactive) | 21.2 µM (inactive) | 33.7 µM (inactive) | 31.5 µM (inactive) | 32.4 µM (inactive) | 21.6 µM (inactive) | 13.2 µM (inactive) | 34.4 µM (inactive) | 31 µM (inactive) | 32.8 µM (inactive) | 55.8 µM (inactive) | 18.7 µM (inactive) | 48.3 µM (inactive) | 29.7 µM (inactive) | 35.2 µM (inactive) | 40 µM (inactive) | 16.9 µM (inactive) | 61.9 µM (inactive) | – |
| CC(=O)N(C)C(C(=O)N1CC(C)CC1C(=O)N(C)C1C(=O)NC(CC(C)C)C(=O)N2CC(C)CC2C(=O)NC(CC(C)C)C(=O)N(C)C(C(C)C)C(=O)N2CCCC2C(=O)N(C)C(CC(C)C)C(=O)NCC(=O)OC1C)C(C)C (stereo unspecified) | > 100 µM (inactive) | > 100 µM (inactive) | > 100 µM (inactive) | > 100 µM (inactive) | > 100 µM (inactive) | > 100 µM (inactive) | – | > 100 µM (inactive) | > 100 µM (inactive) | > 100 µM (inactive) | > 100 µM (inactive) | > 100 µM (inactive) | > 100 µM (inactive) | > 100 µM (inactive) | > 100 µM (inactive) | > 100 µM (inactive) | > 100 µM (inactive) | > 100 µM (inactive) | > 100 µM (inactive) | > 100 µM (inactive) |
| CCCC[P+](CCCC)(CCCC)C(C(=O)OC)C(C(=O)OC)=C1SC(C(=O)OC)=C(C(=O)OC)S1 (stereo unspecified) | > 100 µM (inactive) | – | > 100 µM (inactive) | > 100 µM (inactive) | > 100 µM (inactive) | > 100 µM (inactive) | > 100 µM (inactive) | > 100 µM (inactive) | > 100 µM (inactive) | > 100 µM (inactive) | > 100 µM (inactive) | > 100 µM (inactive) | > 100 µM (inactive) | > 100 µM (inactive) | > 100 µM (inactive) | > 100 µM (inactive) | > 100 µM (inactive) | > 100 µM (inactive) | > 100 µM (inactive) | > 100 µM (inactive) |
| Cc1c(C(=O)O)n2cnnc2c2ccccc12 | > 100 µM (inactive) | > 100 µM (inactive) | > 100 µM (inactive) | > 100 µM (inactive) | > 100 µM (inactive) | > 100 µM (inactive) | – | > 100 µM (inactive) | > 100 µM (inactive) | > 100 µM (inactive) | > 100 µM (inactive) | > 100 µM (inactive) | > 100 µM (inactive) | > 100 µM (inactive) | – | > 100 µM (inactive) | > 100 µM (inactive) | > 100 µM (inactive) | > 100 µM (inactive) | > 100 µM (inactive) |
| O=C1CCCC2=C1CC1=C(CCCC1=O)N2c1ccccc1 | > 100 µM (inactive) | > 100 µM (inactive) | – | > 100 µM (inactive) | > 100 µM (inactive) | – | – | – | > 100 µM (inactive) | > 100 µM (inactive) | – | > 100 µM (inactive) | – | > 100 µM (inactive) | > 100 µM (inactive) | > 100 µM (inactive) | > 100 µM (inactive) | > 100 µM (inactive) | – | > 100 µM (inactive) |
| COc1ccc(-c2nc(-c3ccc(OC)cc3)n(-c3ccccc3)n2)cc1 | 38.5 µM (inactive) | > 100 µM (inactive) | 46.9 µM (inactive) | 56.4 µM (inactive) | 68.7 µM (inactive) | 50.2 µM (inactive) | – | 11.8 µM (inactive) | > 100 µM (inactive) | > 100 µM (inactive) | > 100 µM (inactive) | > 100 µM (inactive) | > 100 µM (inactive) | 57.8 µM (inactive) | > 100 µM (inactive) | > 100 µM (inactive) | 78.9 µM (inactive) | 21.6 µM (inactive) | > 100 µM (inactive) | – |
